Primed or numbered codes have the meaning given here. Ends that are not written are not given here. PEG2′ = not defined here
What was measured:
[1] = test system: cathepsin and/or MMP protease activities; assay: probe cleavage in plasma of healthy, NASH regression and NASH progression mice; assay type: biochemical; conditions: K2 EDTA plasma at 20 weeks
Text: Plasma samples were collected from all animals at 20 weeks.
The probes showing the most differentiation in NASH were linked to cathepsin and/or MMP protease activities.

[2] = test system: NASH-related proteases; assay: ex vivo fluorescent probe cleavage (RFU/min) in K2 EDTA plasma, NASH (CDAHFD) vs healthy (CD) mice; assay type: biochemical; conditions: n=10 samples and pooled plasma
Description: All animals were used in accordance with animal care guidelines. Plasma was obtained from these blood samples by centrifugation at 3,500 RPM for 20 min at 4° C. The plasma was stored at −80° C. until it was needed for experimental purposes.
Samples were mixed with protease substrates and quenchers/reporters in 96-well plates. The 96-well plates were read on a Biotech Synergy H1, using 465,535 excitation/emission settings.
Probes measuring cathepsin activity were 3-fold higher in protease cleavage kinetics in mice with NASH compared to healthy mice.
A single plasma sample was contacted with the probes for each predetermined protease to provide a multiplex assessment of protease activity in the sample.

[3] = test system: host response and SARS-COV2 proteases; assay: probe cleavage in K2 EDTA and Lithium Heparin plasma, COVID vs healthy; assay type: biochemical
[4] = test system: proteolytic cleavage of Probe #102 (cathepsin L, CTSL); assay: protease inhibitor profiling of Probe #102 cleavage in NASH and healthy plasma; assay type: biochemical, mice; conditions: for effect on Probe #102 signal: NASH and healthy plasma
Description: For this experiment, all plasma samples were prepared individually and diluted 1/10e in PBS with inhibitor added directly to the samples. Inhibitor was prepared at 15× concentration to final. Substrates were diluted in DI water at 18 uM, such that the final concentration on the plate would be 6 uM. All samples were prepared such that their last dilution on the plate would not affect the desired final concentration. 10 ul of each individual sample was pipetted into their corresponding wells, and the plate was then spun down in the centrifuge at 1500 RPM for 30 seconds to coat the bottom of each well with the sample. 5 ul of the 18 uM substrate solution was pipetted into each well being used on a 384 well plate, and then the plate was spun down in the centrifuge at 1500 rpm for 30 seconds. The plate was placed immediately in the plate reader at 37° C. for a 30-minute-long fluorescence kinetic read at 485/535 extended gain.
To assess the proteolytic cleavage pattern of Probe #102, samples were tested using a pool of broad inhibitors for serine, cysteine, threonine, MMP and aspartic protease family members (broad inhibitor) to assess general protease activity, AEBSF for serine proteases, E64 for cysteine proteases, CTSi for broad cathepsin inhibition of cathepsins L, S, K and B, or specific inhibitors for cathepsin K (L00625), for cathepsin L (SID) or cathepsin B (CA074).

[5] = test system: carboxylesterase 1, phospholipase A2 and lipoprotein lipase; assay: spiked recombinant enzymes in human plasma with resorufin oleate as substrate; assay type: biochemical
[6] = test system: caspase activity; assay: ex vivo probe cleavage in plasma of Jo2 fulminant hepatitis mice; assay type: biochemical; conditions: mouse plasma 3 hours after Jo2 injection
Description: Fulminant hepatitis is induced after injection intraperitoneal of monoclonal antibody anti-CD95 (Jo2, BD biosciences, 4 ug/animal), and mouse plasma samples were collected 3 hours after Jo2 injection.

[7] = test system: Granzyme B; assay: probe cleavage in COVID positive and COVID negative swab samples; assay type: biochemical
[8] = K2 EDTA and Lithium Heparin plasma sets

Probe #492: probe whose fluorescence increase is ascribed to protease activity and NASH disease in mice plasma ({FAM}-GQRANSIRVTWG-{K(CPQ2)-PEG2′-dK-dK-Gly-Cys}; not fully specified; printed as (FAM)-GQRANSIRVTWG-K(CPQ2)-(PEG2)-DLys-DLys-GC)
differentiation among healthy, regression and NASH plasma samples [1]: can differentiate
what the measured rate of fluorescence increase is ascribed to [2]: can be ascribed to protease activity and to NASH disease

Probe #409: the SARS CoV2 coronavirus substrate (SARS-COV2 3C protease) (GTSAVLQSGFRKGK; also: 5-FAM, CPQ2 quencher, PEG2-kk-GC, places not given here)
differential cleavage between COVID and healthy samples ([3]; K2 EDTA samples): modest contrast

NCCc1ccc(S(=O)(=O)F)cc1 [AEBSF]
decrease of NASH signal ([4]; Probe #102, NASH plasma): 65%
decrease of healthy signal ([4]; Probe #102, healthy plasma): 60%

CN1CCN(c2nc(-c3ccc(C(=O)NC4(C(=O)NCC#N)CCCCC4)cc3)cs2)CC1 [Probe L006235]
effect on Probe #102 signal [4]: did not significantly decrease signal

CCCC(=O)O [butyrate]
suitability as substrate for enzyme detection [5]: promising for detection of broad range of enzymes

Resorufin oleate
suitability as substrate for enzyme detection [5]: promising for detection of broad range of enzymes

Probe #84: a Furin substrate (GRVKRGLAGK; also: 5-FAM, CPQ2 quencher, PEG2-kk-GC, places not given here)
differential cleavage between COVID and healthy samples [3, 8]: demonstrated contrast in both sets

Probe #428: probe differentiating healthy, regression and NASH plasma samples ({FAM}-GDRRKKLTQG-{K(CPQ2)-PEG2′-dK-dK-Gly-Cys}; not fully specified; printed as (FAM)-GDRRKKLTQG-K(CPQ2)-(PEG2)-DLys-DLys-GC)
differentiation among healthy, regression and NASH plasma samples [1]: can differentiate

Probe #520: probe differentiating healthy, regression and NASH plasma samples (GKPISLISSG; not fully specified; 5FAM, K(CPQ2), PEG2-GC)
differentiation among healthy, regression and NASH plasma samples [1]: can differentiate

Probe #96: probe differentiating healthy, regression and NASH plasma samples ({FAM}-GRPLALWESQG-{K(CPQ2)-PEG2′-dK-Gly-Cys}; not fully specified; printed as (FAM)-GRPLALWESQG-K(CPQ2)-PEG2-k-GC)
differentiation among healthy, regression and NASH plasma samples [1]: can differentiate

Probe #8: Caspase centric probe (VDVAD; not fully specified; 5-FAM, CPQ2 quencher, PEG2, D-Lys-D-Lys-GC)
contrast between healthy and Jo2 samples [6]: contrast that is specific and sensitive to the Jo2 model

Probe #462: a MMP8 substrate (GKKAKRNALG; also: FAM (position not given here), K(CPQ2) (position not given here), PEG2, D-Lys-D-Lys-GC (attachment not given here))
differential cleavage between COVID and healthy samples [3, 8]: demonstrated contrast in both sets

Probe #18: a Neutrophil elastase substrate (GAAPVGK; also: 5-FAM, CPQ2 quencher, PEG2-kk-GC, places not given here)
differential cleavage between COVID and healthy samples [3, 8]: demonstrated contrast in both sets

CC(C)C[C@H](NC(=O)[C@H]1O[C@@H]1C(=O)O)C(=O)NCCCCN=C(N)N [Probe E64, E64]
effect on Probe #102 signal [4]: decreased NASH signal significantly

Probe #102: a CTSL sensing probe; fluorescent reporter and quencher peptide probe (GKPILFFRLKG; also: FAM (position not given here), K(CPQ2) quencher (position not given here), PEG2-kk-GC (attachment not given here))
differentiation among healthy, regression and NASH plasma samples [1]: can differentiate
protease whose activity the probe responds to ([4]; inhibitor experiments FIG. 30D-F): specifically responds to the activity of cathepsin L (CTSL)
what the measured rate of fluorescence increase is ascribed to [2]: can be ascribed to protease activity and to NASH disease

CCCNC(=O)[C@H]1O[C@@H]1C(=O)N[C@H](C(=O)N1CCC[C@H]1C(=O)O)[C@@H](C)CC [CA074]
effect on Probe #102 signal [4]: did not significantly decrease signal

Probe #647: Caspase centric probe; signal measures the activity of protease Granzyme B (GAIEPDSGG; also: 5FAM (position not given here), Lys(CPQ2) (position not given here), PEG2, D-Lys-D-Lys, GC-NH2 (attachment not given here))
contrast between healthy and Jo2 samples [6]: contrast that is specific and sensitive to the Jo2 model
number of active samples, COVID+ ([7]; adjusted RFU across timepoints, COVID+): 7 samples
number of active samples, COVID- ([7]; adjusted RFU across timepoints, COVID-): 1 samples
protease whose activity the probe signal measures ([7]; inhibition experiments, healthy vs COVID samples): measures the activity of protease Granzyme B
differentiation between COVID+ and COVID- samples ([7]; swab samples in saline): key differentiator
differentiation among healthy, regression and NASH plasma samples [1]: can differentiate
